Test results as given in the RepoRT retention time repository (doi:10.1016/j.jchromb.2020.122105).

Experiments:
Details in all cases: stereoisomer not certain
[1] = RP, Waters CORTECS T3, 100 × 2.1 mm, 2.7 µm, 0.1 mL/min, estimated dead time 2.2 min; A: water + 0.1% formic acid, pH 3; B: methanol + 0.1% formic acid, pH 3; gradient (min/%B) 0/0 1/0 6/5 30/100 35/100 35.1/0 40/0
[2] = RP, Waters CORTECS T3, 100 × 2.1 mm, 2.7 µm, 0.3 mL/min, estimated dead time 0.73 min; A: water + 0.1% formic acid, pH 3; B: methanol + 0.1% formic acid, pH 3; gradient (min/%B) 0/5 5/5 25/100 30/100 30.1/5 35/5
[3] = RP, Waters CORTECS T3, 100 × 2.1 mm, 2.7 µm, 0.3 mL/min, estimated dead time 0.73 min; A: water + 0.1% formic acid, pH 3; B: methanol + 0.1% formic acid, pH 3; gradient (min/%B) 0/0 1/0 6/5 30/100 35/100 35.1/0 40/0
[4] = RP, Waters ACQUITY UPLC BEH C18, 100 × 2.1 mm, 1.7 µm, 0.1 mL/min, estimated dead time 2.2 min; A: water + 0.1% formic acid, pH 3; B: methanol + 0.1% formic acid, pH 3; gradient (min/%B) 0/5 5/5 25/95 25.1/100 35/100 35.1/5 45/5
[5] = RP, Waters CORTECS T3, 100 × 2.1 mm, 2.7 µm, 0.1 mL/min, estimated dead time 2.2 min; A: water + 0.1% formic acid, pH 3; B: methanol + 0.1% formic acid, pH 3; gradient (min/%B) 0/5 5/5 25/95 25.1/100 35/100 35.1/5 45/5
[6] = HILIC, Thermo Scientific Accucore HILIC, 100 × 2.1 mm, 2.6 µm, 0.5 mL/min, estimated dead time 0.44 min; A: water + 0.1% formic acid + 10 mM ammonium formate, pH 3; B: 5% water + 95% acetonitrile + 0.1% formic acid + 10 mM ammonium formate, pH 3; gradient (min/%B) 0/95 5/95 20/57 25/57 30/95 40/95
[7] = RP, Waters CORTECS T3, 100 × 2.1 mm, 2.7 µm, 0.2 mL/min, estimated dead time 1.1 min; A: water + 0.045% formic acid + 0.11% ammonium hydroxide, pH 7; B: methanol; gradient (min/%B) 0/5 5/5 25/95 25.1/100 35/100 35.1/5 45/5
[8] = RP, Waters CORTECS T3, 100 × 2.1 mm, 2.7 µm, 0.25 mL/min, estimated dead time 0.88 min; A: water + 0.1% formic acid, pH 3; B: methanol + 0.1% formic acid, pH 3; gradient (min/%B) 0/5 5/5 25/95 25.1/100 35/100 35.1/5 45/5
[9] = RP, Waters CORTECS T3, 100 × 2.1 mm, 2.7 µm, 0.2 mL/min, estimated dead time 1.1 min; A: water + 0.1% formic acid, pH 3; B: methanol + 0.1% formic acid, pH 3; gradient (min/%B) 0/0 1/0 6/5 30/100 35/100 35.1/0 40/0
[10] = RP, Waters CORTECS T3, 100 × 2.1 mm, 2.7 µm, 0.2 mL/min, estimated dead time 1.1 min; A: water + 0.1% formic acid, pH 3; B: methanol + 0.1% formic acid, pH 3; gradient (min/%B) 0/5 5/5 25/95 25.1/100 35/100 35.1/5 45/5
[11] = RP, Waters CORTECS T3, 100 × 2.1 mm, 2.7 µm, 0.3 mL/min, estimated dead time 0.73 min; A: water + 0.1% formic acid, pH 3; B: methanol + 0.1% formic acid, pH 3; gradient (min/%B) 0/0 1/0 6/5 30/100 35/100 35.1/0 40/0; remark: listed apart in the source
[12] = RP, Waters ACQUITY UPLC BEH C18, 100 × 2.1 mm, 1.7 µm, 0.1 mL/min, estimated dead time 2.2 min; A: water + 0.1% formic acid, pH 3; B: methanol + 0.1% formic acid, pH 3; gradient (min/%B) 0/5 5/5 25/100 30/100 30.1/5 35/5
[13] = RP, Waters ACQUITY UPLC BEH C18, 100 × 2.1 mm, 1.7 µm, 0.1 mL/min, estimated dead time 2.2 min; A: water + 0.1% formic acid, pH 3; B: methanol + 0.1% formic acid, pH 3; gradient (min/%B) 0/5 5/5 25/95 25.1/100 35/100 35.1/5 45/5; remark: listed apart in the source
[14] = RP, Waters CORTECS T3, 100 × 2.1 mm, 2.7 µm, 0.15 mL/min, estimated dead time 1.5 min; A: water + 0.1% formic acid, pH 3; B: methanol + 0.1% formic acid, pH 3; gradient (min/%B) 0/0 1/0 6/5 30/100 35/100 35.1/0 40/0
[15] = RP, Waters CORTECS T3, 100 × 2.1 mm, 2.7 µm, 0.2 mL/min, estimated dead time 1.1 min; A: water + 0.1% formic acid, pH 3; B: methanol + 0.1% formic acid, pH 3; gradient (min/%B) 0/0 1/0 6/5 30/100 35/100 35.1/0 40/0; remark: listed apart in the source
[16] = HILIC, Merck SeQuant ZIC-HILIC, 150 × 2.1 mm, 5 µm, 0.75 mL/min, estimated dead time 0.44 min; A: water + 0.1% acetic acid + 10 mM ammonium acetate, pH 4; B: 5% water + 95% acetonitrile + 0.1% acetic acid + 10 mM ammonium acetate, pH 4; gradient (min/%B) 0/95 5/95 20/57 25/57 30/95 40/95
[17] = RP, Waters ACQUITY UPLC BEH C18, 100 × 2.1 mm, 1.7 µm, 0.1 mL/min, estimated dead time 2.2 min; A: water + 0.1% formic acid, pH 3; B: methanol + 0.1% formic acid, pH 3; gradient (min/%B) 0/5 5/5 25/95 25.1/100 35/100 35.1/5 45/5; remark: listed apart in the source

| LC retention time [1] | LC retention time [2] | LC retention time [3] | LC retention time [4] | LC retention time [5] | LC retention time [6] | LC retention time [7] | LC retention time [8] | LC retention time [9] | LC retention time [10] | LC retention time [11] | LC retention time [12] | LC retention time [13] | LC retention time [14] | LC retention time [15] | LC retention time [16] | LC retention time [17] | SMILES |
| --- | --- | --- | --- | --- | --- | --- | --- | --- | --- | --- | --- | --- | --- | --- | --- | --- | --- |
| 17.1 min | 15.5 min | 18 min | 20.2 min | 19.9 min | 8.63 min | 17.2 min | 16.4 min | 19.3 min | 22.3 min | 18 min | 19.7 min | 20.2 min | 20.4 min | 19.2 min |  |  | N[C@@H](Cc1cc(I)c(Oc2ccc(O)cc2)c(I)c1)C(=O)O [3,5-DIIODO-L-THYRONINE] |
| 10.7 min | 9.17 min | 10.7 min | 14.3 min | 14.2 min | 6.71 min | 7.9 min | 9.94 min | 12.2 min | 15.8 min | 10.8 min | 14.2 min | 14.3 min | 13.6 min | 12.3 min |  |  | O=C(O)c1cc(=O)c2ccccc2[nH]1 [4-HYDROXY-2-QUINOLINECARBOXYLIC ACID] |
| 7.4 min | 5.2 min | 7.94 min |  | 11.2 min | 4.93 min |  | 6.32 min | 9.51 min | 13 min | 8.1 min | 11.5 min |  | 10.9 min | 9.6 min | 9.3 min | 11.6 min | CC(C)(CO)C(O)C(=O)NCCC(=O)O [D-PANTOTHENIC ACID] |
| 13.9 min | 12.4 min | 14.3 min |  | 17.1 min |  | 9.32 min | 13.2 min | 15.7 min | 19 min | 14.3 min | 16.9 min |  | 16.9 min | 15.7 min |  | 17.2 min | CC1NC(=O)NC1CCCCCC(=O)O (stereo unspecified) [DETHIOBIOTIN] |
| 13.4 min | 11.8 min | 13.6 min | 17.3 min | 17 min | 0.92 min | 16.9 min | 12.6 min | 15 min | 18.8 min | 13.6 min | 16.9 min | 17.3 min | 16.5 min | 15.1 min | 0.62 min | 17.2 min | CC(C)=CCNc1ncnc2nc[nH]c12 [N6-(DELTA2-ISOPENTENYL)-ADENINE] |
| 13.9 min | 12.3 min | 14.2 min |  | 17.3 min |  | 10.4 min | 13.2 min | 15.7 min | 19.2 min | 14.2 min | 17.3 min |  | 17 min | 15.7 min | 8.28 min | 17.6 min | CC(=O)N[C@H](Cc1c[nH]c2ccccc12)C(=O)O [N-ACETYL-D-TRYPTOPHAN] |
|  | 1.73 min | 2.75 min | 2.72 min | 4.93 min | 3.39 min | 1.35 min | 2.11 min | 4.26 min | 8.07 min | 3.11 min | 4.78 min |  | 5.95 min |  | 5.43 min | 4.74 min | Nc1nc2nccnc2c(=O)[nH]1 [PTERIN] |
| 13.1 min | 11.7 min | 13.5 min | 15.7 min | 16 min |  | 13.2 min | 12.4 min | 14.7 min | 17.7 min | 13.5 min | 15.5 min | 15.7 min | 15.8 min | 14.7 min |  | 15.7 min | Cc1cc2nc3c(=O)[nH]c(=O)nc-3n(CC(O)C(O)C(O)CO)c2cc1C (stereo unspecified) [RIBOFLAVIN] |
|  | 1.53 min | 2.17 min | 2.72 min | 4.3 min | 1.92 min |  | 1.85 min | 3.29 min |  | 2.39 min |  | 2.66 min | 4.65 min | 3.32 min | 5.71 min | 2.82 min | O=c1[nH]c(=O)c2[nH]cnc2[nH]1 [XANTHINE] |
| 10.4 min | 8.94 min | 10.5 min | 13.8 min | 13.9 min | 7.89 min |  | 9.71 min | 12 min | 15.5 min | 10.5 min | 13.8 min | 13.9 min | 13.4 min | 12.1 min | 9.68 min | 14 min | O=C(O)c1cc(=O)c2cccc(O)c2[nH]1 [XANTHURENIC ACID] |
